Results: patent EP1935887A1, “Heterocyclic substituted carbonyl derivatives and their use as dopamine D3 receptor ligands” (Aventis Pharmaceuticals Inc., priority 2001, dated 2002)

Target: T1, Cloned Human Dopamine D3 Receptors (Homo sapiens, UniProt P35462)
T1 construct: expressed in transfected cells; membrane homogenate
Assay: [N-Methyl-3H]Spiroperidol binding to cloned human dopamine D3 receptors
Conditions: Table 2; unit inferred; read-out: d3Ki
Summary of the method: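 Membranes from CHO cells stably expressing human D3 receptor, homogenised in 10% DMSO and stored at -80°C. Binding uses [N-methyl-3H]spiroperidol in Tris buffer, pH 7.7.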

T1 sequence (P35462 whole entry): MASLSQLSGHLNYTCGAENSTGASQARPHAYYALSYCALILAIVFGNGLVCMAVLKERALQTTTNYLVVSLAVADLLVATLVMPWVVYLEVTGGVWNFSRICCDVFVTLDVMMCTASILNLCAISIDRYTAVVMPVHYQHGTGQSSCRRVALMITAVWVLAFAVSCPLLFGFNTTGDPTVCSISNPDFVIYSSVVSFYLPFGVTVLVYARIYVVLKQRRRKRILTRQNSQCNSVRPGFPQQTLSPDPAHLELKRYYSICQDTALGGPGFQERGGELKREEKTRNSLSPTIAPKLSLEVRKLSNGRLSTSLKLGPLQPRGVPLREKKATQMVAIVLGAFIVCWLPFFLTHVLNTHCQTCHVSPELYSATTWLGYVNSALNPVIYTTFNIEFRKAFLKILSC

Row | SMILES | Ki
1 | C[C@H]1CC[C@H](NC(=O)CCCN2CCCN(c3csc4cc(F)ccc34)CC2)CC1 [compound 826824] | 0.0342 µM
2 | CCOC(=O)[C@H]1CC[C@H](NC(=O)CCCN2CCCN(c3csc4cc(F)ccc34)CC2)CC1 [compound 826825] | 0.0749 µM
3 | CC[C@H]1CC[C@H](NC(=O)CCCN2CCCN(c3csc4cc(F)ccc34)CC2)CC1 [compound 826826] | 0.0274 µM
4 | CC1CCCC(NC(=O)CCCN2CCCN(c3csc4cc(F)ccc34)CC2)C1 (centres unmarked) [compound 826827] | 0.0395 µM
5 | CCN(C(=O)CCCN1CCCN(c2csc3cc(F)ccc23)CC1)C1CCCCC1 [compound 826829] | 0.015 µM
6 | O=C(CCCN1CCCN(c2csc3cc(F)ccc23)CC1)N(CCO)C1CCCCC1 [compound 826830] | 0.0251 µM
7 | O=C(CCCN1CCCN(c2csc3cc(F)ccc23)CC1)NC1CCCC1 [compound 826840] | 0.011 µM

Second part, the compound after the results:

Row | Ki | SMILES
8 | 0.0152 µM | CC1CCCC(NC(=O)[C@@H]2C[C@H]2CN2CCN(c3csc4cc(C(F)(F)F)ccc34)CC2)C1 (some centres unmarked) [compound 826884]
9 | 0.0203 µM | CN(C(=O)[C@@H]1C[C@H]1CN1CCN(c2csc3cc(C(F)(F)F)ccc23)CC1)C1CCCCC1 [compound 826885]
10 | 0.136 µM | O=C([C@@H]1C[C@H]1CN1CCN(c2csc3cc(C(F)(F)F)ccc23)CC1)N(c1ccccc1)C1CCCCC1 [compound 826886]

Same assay, conditions: Table 2 part the 10th table; read-out: d3Ki

Row | SMILES | Ki
11 | CCOC(=O)C1CCN(C(=O)CCCN2CCCN(c3csc4cc(F)ccc34)CC2)CC1 [compound 826831] | 0.00255 µM
12 | O=C(CCCN1CCCN(c2csc3cc(F)ccc23)CC1)N1CCC(O)CC1 [compound 826832] | 0.0161 µM
13 | CC1CCCCN1C(=O)CCCN1CCCN(c2csc3cc(F)ccc23)CC1 (centres unmarked) [compound 826833] | 0.000872 µM
14 | CC1CCN(C(=O)CCCN2CCCN(c3csc4cc(F)ccc34)CC2)CC1 [compound 826834] | 0.00801 µM
15 | CC1CCCN(C(=O)CCCN2CCCN(c3csc4cc(F)ccc34)CC2)C1 (centres unmarked) [compound 826835] | 0.00212 µM
16 | O=C(CCCN1CCCN(c2csc3cc(F)ccc23)CC1)N1CCC(N2CCCC2)CC1 [compound 826836] | 0.00223 µM
17 | CC1(C)CCCN(C(=O)CCCN2CCCN(c3csc4cc(F)ccc34)CC2)C1 [compound 826837] | 0.0088 µM
18 | CC1CC(C)CN(C(=O)CCCN2CCCN(c3csc4cc(F)ccc34)CC2)C1 (centres unmarked) [compound 826838] | 0.0146 µM
19 | O=C(CCCN1CCCN(c2csc3cc(F)ccc23)CC1)N1CCCC1 [compound 826839] | 0.00937 µM
20 | CC1CCCN1C(=O)CCCN1CCCN(c2csc3cc(F)ccc23)CC1 (centres unmarked) [compound 826842] | 0.00366 µM
21 | CN(C)C1CCN(C(=O)CCCN2CCCN(c3csc4cc(F)ccc34)CC2)C1 (centres unmarked) [compound 826843] | 0.126 µM
22 | CN(C)C1CCN(C(=O)CCCN2CCN(c3csc4cc(F)ccc34)CC2)C1 (centres unmarked) [compound 826863] | 0.0266 µM
23 | CCOC(=O)C1CCN(C(=O)[C@@H]2C[C@H]2CN2CCCN(c3csc4cc(F)ccc34)CC2)CC1 [compound 826871] | 0.0107 µM
24 | CC1CCN(C(=O)[C@@H]2C[C@H]2CN2CCCN(c3csc4cc(F)ccc34)CC2)CC1 [compound 826874] | 0.00172 µM
25 | CC1CCCN(C(=O)[C@@H]2C[C@H]2CN2CCCN(c3csc4cc(F)ccc34)CC2)C1 (some centres unmarked) [compound 826875] | 0.00279 µM
26 | O=C([C@@H]1C[C@H]1CN1CCCN(c2csc3cc(F)ccc23)CC1)N1CCC(N2CCCC2)CC1 [compound 826876] | 0.00272 µM
27 | CC1(C)CCCN(C(=O)[C@@H]2C[C@H]2CN2CCCN(c3csc4cc(F)ccc34)CC2)C1 [compound 826877] | 0.00472 µM
28 | CC1CC(C)CN(C(=O)[C@@H]2C[C@H]2CN2CCCN(c3csc4cc(F)ccc34)CC2)C1 (some centres unmarked) [compound 826878] | 0.00795 µM
29 | CC1CCCN1C(=O)[C@@H]1C[C@H]1CN1CCCN(c2csc3cc(F)ccc23)CC1 (some centres unmarked) [compound 826882] | 0.00293 µM
30 | CN(C)C1CCN(C(=O)[C@@H]2C[C@H]2CN2CCCN(c3csc4cc(F)ccc34)CC2)C1 (some centres unmarked) [compound 826883] | 0.0134 µM

The next lines start with the values.

Row | Ki | SMILES
31 | 0.154 µM | CCOC(=O)C1CN(C(=O)C2CC2CN2CCCN(c3csc4cc(C(F)(F)F)ccc34)CC2)CCC1=O (centres unmarked) [compound 826685]
32 | 0.026 µM | O=C([C@@H]1C[C@H]1CN1CCCN(c2csc3cc(C(F)(F)F)ccc23)CC1)N1CCC(O)CC1 [compound 826686]
33 | 0.132 µM | NC(=O)C1CCN(C(=O)[C@@H]2C[C@H]2CN2CCCN(c3csc4cc(C(F)(F)F)ccc34)CC2)CC1 [compound 826687]
34 | 0.217 µM | O=C([C@@H]1C[C@H]1CN1CCCN(c2csc3cc(C(F)(F)F)ccc23)CC1)N1CCC(Cc2ccccc2)CC1 [compound 826688]
35 | 0.674 µM | N#CC1(c2ccccc2)CCN(C(=O)[C@@H]2C[C@H]2CN2CCCN(c3csc4cc(C(F)(F)F)ccc34)CC2)CC1 [compound 826689]
36 | 0.035 µM | O=C([C@@H]1C[C@H]1CN1CCCN(c2csc3cc(C(F)(F)F)ccc23)CC1)N1CCOCC1 [compound 826691]
37 | 0.00131 µM | CC1CCCCN1C(=O)[C@@H]1C[C@H]1CN1CCCN(c2csc3cc(F)ccc23)CC1 (some centres unmarked) [compound 826873]
38 | 0.00159 µM | O=C([C@@H]1C[C@H]1CN1CCCN(c2csc3cc(F)ccc23)CC1)N1CCCC1 [compound 826879]

Same assay, conditions: read-out: d3Ki

Row | SMILES | Ki
39 | CCOC(=O)[C@H]1CC[C@H](NC(=O)[C@@H]2C[C@H]2CN2CCCN(c3csc4cc(F)ccc34)CC2)CC1 [compound 826865] | 0.00368 µM
40 | CC[C@H]1CC[C@H](NC(=O)[C@@H]2C[C@H]2CN2CCCN(c3csc4cc(F)ccc34)CC2)CC1 [compound 826866] | 0.00124 µM

Next, values leading:

Row | Ki | SMILES
41 | 0.00216 µM | C[C@H]1CC[C@H](NC(=O)[C@@H]2C[C@H]2CN2CCCN(c3csc4cc(F)ccc34)CC2)CC1 [compound 826864]
42 | 0.00189 µM | CC1CCCC(NC(=O)[C@@H]2C[C@H]2CN2CCCN(c3csc4cc(F)ccc34)CC2)C1 (some centres unmarked) [compound 826867]
43 | 0.00349 µM | CN(C(=O)[C@@H]1C[C@H]1CN1CCCN(c2csc3cc(F)ccc23)CC1)C1CCCCC1 [compound 826868]
44 | 0.00675 µM | CCN(C(=O)[C@@H]1C[C@H]1CN1CCCN(c2csc3cc(F)ccc23)CC1)C1CCCCC1 [compound 826869]
45 | 0.0074 µM | O=C([C@@H]1C[C@H]1CN1CCCN(c2csc3cc(F)ccc23)CC1)N(CCO)C1CCCCC1 [compound 826870]
46 | 0.00286 µM | O=C(NC1CCCC1)[C@@H]1C[C@H]1CN1CCCN(c2csc3cc(F)ccc23)CC1 [compound 826880]
47 | 0.00238 µM | O=C(NC1CCCCC1)[C@@H]1C[C@H]1CN1CCCN(c2csc3cc(F)ccc23)CC1 [compound 826881]
48 | 0.0838 µM | O=C(NNC1CCCCC1)[C@@H]1C[C@H]1CN1CCN(c2csc3cc(C(F)(F)F)ccc23)CC1 [compound 826887]
49 | 0.038 µM | CC1(C)C2CCC1(C)C(NC(=O)[C@@H]1C[C@H]1CN1CCN(c3csc4cc(C(F)(F)F)ccc34)CC1)C2 (some centres unmarked) [compound 826890]
50 | 0.263 µM | CC(C)[C@@H]1CC[C@@H](C)C[C@H]1NC(=O)[C@@H]1C[C@H]1CN1CCN(c2csc3cc(C(F)(F)F)ccc23)CC1 [compound 826891]
51 | 0.0259 µM | O=C(N[C@H]1CCCC[C@@H]1O)[C@@H]1C[C@H]1CN1CCN(c2csc3cc(C(F)(F)F)ccc23)CC1 [compound 826892]
52 | 0.0204 µM | CC1CC(NC(=O)[C@@H]2C[C@H]2CN2CCN(c3csc4cc(C(F)(F)F)ccc34)CC2)CC(C)(C)C1 (some centres unmarked) [compound 826893]
53 | 0.035 µM | CCN(C(=O)[C@@H]1C[C@H]1CN1CCN(c2csc3cc(C(F)(F)F)ccc23)CC1)C1CCCCC1 [compound 826894]
